Data on 7 compounds can be found in patent US10723723B2, “Substituted bicycle heterocyclic derivatives useful as ROMK channel inhibitors” (BRISTOL-MYERS SQUIBB COMPANY, priority 2016, dated 2020).

SMILES strings stand for the structures.

What all share (assay type): cell-based
One data set addresses hROMK (human Kir1.1) (Homo sapiens (Human), UniProt P48048). In words: Thallium Flux Assay (FluxOR, CHO T-Rex hROMK stable cell line). The settings on record: CHO T-Rex hROMK cells, 10-point concentration response curve; read-out: Human ROMK TH Flux IC50.
In a further data set the target is hROMK (Homo sapiens (Human), UniProt P48048). In words: ROMK Manual Patch Clamp Assay. To be noted: whole-cell manual patch clamp, hROMK current; read-out: ROMK EP IC50. (In general: The patch-clamp technique gives a direct electrical read-out from membranes.)
Chain of hROMK (P48048 whole entry): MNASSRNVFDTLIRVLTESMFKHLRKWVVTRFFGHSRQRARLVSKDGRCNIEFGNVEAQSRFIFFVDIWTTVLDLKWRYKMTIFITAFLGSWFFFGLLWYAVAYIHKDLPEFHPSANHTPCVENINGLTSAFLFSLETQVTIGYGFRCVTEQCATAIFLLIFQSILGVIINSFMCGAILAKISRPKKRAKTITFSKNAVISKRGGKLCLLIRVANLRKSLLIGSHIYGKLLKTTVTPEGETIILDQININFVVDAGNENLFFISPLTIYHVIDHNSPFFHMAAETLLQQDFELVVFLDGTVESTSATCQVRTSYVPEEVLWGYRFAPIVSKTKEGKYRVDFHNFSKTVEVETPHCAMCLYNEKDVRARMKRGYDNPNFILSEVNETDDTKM
Another data set addresses hERG channels (Homo sapiens (Human), UniProt Q12809). In words: hERG Manual Patch Clamp Assay (HEK 293 cells stably expressing hERG channels). To be noted: human, HEK 293 cells stably expressing hERG channels, pH 7.4. On the technique in general: hERG is a cardiac potassium channel; its block is linked to QT prolongation.

Chain of hROMK (human Kir1.1) (P48048 whole entry): as above
Chain of hERG channels (Q12809 whole entry): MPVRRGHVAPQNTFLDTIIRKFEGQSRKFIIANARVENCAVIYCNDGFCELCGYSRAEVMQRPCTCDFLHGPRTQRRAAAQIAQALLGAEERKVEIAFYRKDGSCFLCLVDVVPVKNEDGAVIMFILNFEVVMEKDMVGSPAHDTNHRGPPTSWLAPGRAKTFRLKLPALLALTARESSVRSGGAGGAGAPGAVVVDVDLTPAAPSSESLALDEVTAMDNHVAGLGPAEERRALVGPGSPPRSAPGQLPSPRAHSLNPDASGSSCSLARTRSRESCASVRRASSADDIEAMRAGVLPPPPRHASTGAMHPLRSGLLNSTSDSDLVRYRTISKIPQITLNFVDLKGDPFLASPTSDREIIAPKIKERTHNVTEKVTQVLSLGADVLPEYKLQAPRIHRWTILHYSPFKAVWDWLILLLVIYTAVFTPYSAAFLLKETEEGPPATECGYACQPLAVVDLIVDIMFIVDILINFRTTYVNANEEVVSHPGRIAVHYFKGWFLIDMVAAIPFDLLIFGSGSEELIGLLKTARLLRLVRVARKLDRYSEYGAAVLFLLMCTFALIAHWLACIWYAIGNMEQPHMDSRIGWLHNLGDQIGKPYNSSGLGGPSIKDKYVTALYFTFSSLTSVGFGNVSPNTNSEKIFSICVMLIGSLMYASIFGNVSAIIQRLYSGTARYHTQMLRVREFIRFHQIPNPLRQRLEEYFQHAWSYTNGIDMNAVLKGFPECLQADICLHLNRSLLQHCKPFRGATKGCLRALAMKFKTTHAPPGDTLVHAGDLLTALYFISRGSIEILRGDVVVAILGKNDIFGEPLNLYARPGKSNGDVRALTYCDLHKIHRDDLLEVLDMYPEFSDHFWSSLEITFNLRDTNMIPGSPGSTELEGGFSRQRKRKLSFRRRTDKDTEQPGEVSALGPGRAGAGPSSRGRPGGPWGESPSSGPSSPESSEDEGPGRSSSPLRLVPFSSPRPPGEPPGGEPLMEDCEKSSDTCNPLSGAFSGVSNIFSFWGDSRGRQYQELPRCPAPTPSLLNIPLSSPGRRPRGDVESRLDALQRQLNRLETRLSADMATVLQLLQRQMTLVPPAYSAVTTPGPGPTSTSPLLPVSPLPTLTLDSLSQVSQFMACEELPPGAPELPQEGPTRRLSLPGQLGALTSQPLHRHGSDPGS
Description for hERG channels: hERG electrophysiology assay: The experimental compounds were assessed for hERG activity on HEK 293 cells stably expressing hERG channels using patch clamp technique. Coverslips plated with hERG expressing cells were placed in the experimental chamber and were perfused with a solution composed of (in mM): 140 NaCl, 4 KCl, 1.8 CaCl2), 1 MgCl2, 10 Glucose, 10 HEPES (pH 7.4, NaOH) at room temperature. Borosilicate patch pipettes had tip resistances of 2-4 Mohms when filled with an internal solution containing: 130 KCl, 1 MgCl2, 1 CaCl2), 10 EGTA, 10 HEPES, 5 ATP-K2 (pH 7.2, KOH). The cells were clamped at −80 mV in whole cell configuration using an Axopatch 200B (Axon instruments, Union City, Calif.) patch clamp amplifier controlled by pClamp (Axon instruments) software. Upon formation of a gigaseal, the following voltage protocol was repeatedly (0.05 Hz) applied to record tail currents: depolarization step from −80 mV to +20 mV for 2 seconds followed by a hyperpolarization step to −65 mV (3 seconds) to elicit tail currents. Compounds were applied after stabilization of tail current. First, tail currents were recorded in presence of extracellular solution alone (control) and subsequently, in extracellular solution containing increasing compound concentrations. Each compound concentration was applied for 2-5 minutes. The percentage inhibition at each concentration was calculated as reduction in peak tail current with respect to the peak tail current recorded in the presence of control solution. Data analysis was performed in a custom made template. The percent inhibitions at different concentrations were plotted to obtain a concentration response curve, which was subsequently fitted with a four parameter equation to calculate hERG IC50 value.
A lower hERG % Inhibition value indicates less inhibition of the hERG current
Description for hROMK (human Kir1.1): Solutions and reagents: Thallium flux assay was performed using FluxOR kit (F10017, Life Technologies). Loading buffer, assay buffer and stimulus buffer were prepared using kit components.
To prepare 10 ml of loading buffer: 10 μl of FluxOR dye (reconstituted in DMSO) was first added to 100 μl of powerload concentrate and this mix along with 100 μl of Probenicid (100×) was then added to 9.79 ml of HBSS. […] Stimulus buffer was composed of 15 mM Tl2SO4, 0.75 mM K2SO4 in FluxOR chloride free buffer (diluted to 1× using deionized water). The final concentration of Tl2SO4 and K2SO4 in the assay plate was 3 mM and 0.15 mM, respectively.
Plating and induction of cells: The CHO T-Rex hROMK (human Kir1.1) stable cell line was maintained in Ham's F12 media supplemented with 10% FBS, 1% Penicillin-Streptomycin, 500 μg/ml Zeocin and 10 μg/ml Blasticidin at 37° C. in a 5% CO2 incubator. […] The cell suspension was centrifuged at 1200 rpm for 5 min. After discarding the supernatant, the cells were resuspended in fresh growth media and cell concentration was determined using a hemocytometer. […] The assay plate was kept at 37° C. in a 5% CO2 incubator.
Assay protocol: On the day of experiment, media was removed and loading buffer was added (30 μl/well) to the assay plate. The cells were incubated in the loading buffer for 30 minutes at 37° C. The loading buffer was then replaced by assay buffer (30 μl/well) followed by addition of test compounds or controls. […] Each well was read for 90 sec at 2 sec interval and the stimulus buffer was added after 20 seconds of baseline recording. The final DMSO concentration was either 0.5 or 1% in the assay plate. Positive and negative controls were defined by addition of DMSO or 3 μM of a standard ROMK inhibitor, respectively, to the wells instead of a test compound.
A 10-point concentration response curve was used to estimate the IC50 value of test compounds.

On to `Cc1nc(-n2cc(CNC[C@H](O)c3ccc4c(c3C)COC4=O)cn2)nc(C)c1C#N` [Example 87, (R)-2-(4-(((2-hydroxy-2-(4-methyl-1-oxo-1,3-dihydroisobenzofuran-5-yl)ethyl)amino)methyl)-1H-pyrazol-1-yl)-4,6-dimethylpyrimidine-5-carbonitrile], for which the figures for the IC50 on hROMK (human Kir1.1) and at hROMK were 40 nM and 71 nM, respectively. On hERG channels, this compound displayed an inhibition at 1 µM of 7.5%.

Regarding `Cc1c([C@@H](O)CNC(=O)c2cnc(-c3ccc4oc(=O)n(C)c4c3)s2)ccc2c1COC2=O` [Example 136, (R)-N-(2-hydroxy-2-(4-methyl-1-oxo-1,3-dihydroisobenzofuran-5-yl)ethyl)-2-(3-methyl-oxo-2,3-dihydrobenzo[d]oxazol-5-yl)thiazole-5-carboxamide], the IC50 at hROMK (human Kir1.1) was 70 nM; at hROMK, 86 nM. 1 µM produced 15% inhibition against hERG channels.

`Cc1c([C@@H](O)CNCc2cnc(-n3c(C)nnc3C)nc2)ccc2c1COC2=O` [Example 47, (R)-5-(2-(((2-(3,5-dimethyl-4H-1,2,4-triazol-4-yl)pyrimidin-5-yl)methyl)amino)-1-hydroxyethyl)-4-methylisobenzofuran-1(3H)-one]: the values for the IC50 on hROMK (human Kir1.1) and on hROMK were 100 nM and 420 nM, respectively. Moreover, on hERG channels, at 1 µM the inhibition was 9.7%.

For `Cc1nc(-n2cc(CNC[C@H](O)c3ccc4c(c3C)COC4=O)cn2)ncc1C#N` (single isomer, unassigned) [Example 50], the IC50 on hROMK (human Kir1.1) amounted to 45 nM; at hROMK, 49 nM. Besides, at 1 µM the inhibition against hERG channels was 8.5%.

For `Cc1cc(-n2cc(CNC[C@H](O)c3ccc4c(c3C)COC4=O)nn2)nc(C)c1C#N` [Example 69, (R)-6-(4-(((2-hydroxy-2-(4-methyl-1-oxo-1,3-dihydroisobenzofuran-5-yl)ethyl)amino)methyl)-1H-1,2,3-triazol-1-yl)-2,4-dimethylnicotinonitrile], the results for the IC50 at hROMK (human Kir1.1) and on hROMK were 14 nM and 6.1 nM, respectively. Also, the inhibition at 1 µM on hERG channels was 15%.

Turning to `Cc1cn(-c2ncc(CNC[C@H](O)c3ccc4c(c3C)COC4=O)cn2)cn1` [Example 106, (R)-5-(1-hydroxy-2-(((2-(4-methyl-1H-imidazol-1-yl)pyrimidin-5-yl)methyl)amino)ethyl)-4-methylisobenzofuran-1(3H)one], the IC50 on hROMK (human Kir1.1) stood at 26 nM; at hROMK, 9.2 nM. Also, on hERG channels, 1 µM produced 2.4% inhibition.

On to `Cc1nn(-c2ncc(CNC[C@H](O)c3ccc4c(c3C)COC4=O)cn2)cc1C#N` [Example 105, (R)-1-(5-(((2-hydroxy-2-(4-methyl-1-oxo-1,3-dihydroisobenzofuran-5-yl)ethyl)amino)methyl)pyrimidin-2-yl)-3-methyl-1H-pyrazole-4-carbonitrile], for which the results for the IC50 at hROMK (human Kir1.1) and on hROMK were 11 nM and 7.8 nM, respectively. The compound further registered an inhibition at 1 µM against hERG channels of 3.4%.

As usually defined, the IC50 is the concentration needed to halve the response being measured. A word on the inhibition: it is the relative decrease from the control value, in per cent. Read a high inhibition as strong suppression.
